Experimental data taken from patent publication US20240342292A1, “Compounds for the Degradation of EGFR Kinase” (BeiGene Switzerland GmbH, priority 2021, published 2024).

Columns and labels:
Del19/T790M/C797S EGFR = test: EGFR degradation HTRF assay in H1975-clone #28 (DTC) cells; format: cell-based; conditions: H1975 # 28 DTC (Del19/T790M/C797S), 16h treatment; for DC50: HTRF; for Dmax (%): maximum percentage of degradation
In short: (§1)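 Engineered H1975 lines (exogenous mutant EGFR, endogenous copies knocked out, single clones sequence-verified); 16 h compound, 37 °C/5% CO2, 0.2% DMSO; top 10 uM, 5-fold, 8 pts; lysis 1 h RT, HTRF antibodies overnight RT; 4-parameter logistic fit → DC50.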

L858R/T790M/C797S EGFR = biological target: T1, L858R/T790M/C797S EGFR (Homo sapiens, UniProt P00533, C797S/L858R/T790M); test: EGFR degradation HTRF assay in H1975-clone #25 (LTC) cells; format: cell-based; conditions: 16h treatment; for DC50: H1975 # 25-LTC (L858R/T790M/C797S), HTRF; for Dmax: NCI-H1975, H1975 # 25-LTC (L858R/T790M/C797S), maximum percentage of degradation
T1 construct: expressed in transfected cells; host or cells: H1975 clone #25 (lentiviral over-expression, endogenous EGFR knocked out by sgRNA)
T1 sequence (P00533 25-1210 T790M/C797S/L858R): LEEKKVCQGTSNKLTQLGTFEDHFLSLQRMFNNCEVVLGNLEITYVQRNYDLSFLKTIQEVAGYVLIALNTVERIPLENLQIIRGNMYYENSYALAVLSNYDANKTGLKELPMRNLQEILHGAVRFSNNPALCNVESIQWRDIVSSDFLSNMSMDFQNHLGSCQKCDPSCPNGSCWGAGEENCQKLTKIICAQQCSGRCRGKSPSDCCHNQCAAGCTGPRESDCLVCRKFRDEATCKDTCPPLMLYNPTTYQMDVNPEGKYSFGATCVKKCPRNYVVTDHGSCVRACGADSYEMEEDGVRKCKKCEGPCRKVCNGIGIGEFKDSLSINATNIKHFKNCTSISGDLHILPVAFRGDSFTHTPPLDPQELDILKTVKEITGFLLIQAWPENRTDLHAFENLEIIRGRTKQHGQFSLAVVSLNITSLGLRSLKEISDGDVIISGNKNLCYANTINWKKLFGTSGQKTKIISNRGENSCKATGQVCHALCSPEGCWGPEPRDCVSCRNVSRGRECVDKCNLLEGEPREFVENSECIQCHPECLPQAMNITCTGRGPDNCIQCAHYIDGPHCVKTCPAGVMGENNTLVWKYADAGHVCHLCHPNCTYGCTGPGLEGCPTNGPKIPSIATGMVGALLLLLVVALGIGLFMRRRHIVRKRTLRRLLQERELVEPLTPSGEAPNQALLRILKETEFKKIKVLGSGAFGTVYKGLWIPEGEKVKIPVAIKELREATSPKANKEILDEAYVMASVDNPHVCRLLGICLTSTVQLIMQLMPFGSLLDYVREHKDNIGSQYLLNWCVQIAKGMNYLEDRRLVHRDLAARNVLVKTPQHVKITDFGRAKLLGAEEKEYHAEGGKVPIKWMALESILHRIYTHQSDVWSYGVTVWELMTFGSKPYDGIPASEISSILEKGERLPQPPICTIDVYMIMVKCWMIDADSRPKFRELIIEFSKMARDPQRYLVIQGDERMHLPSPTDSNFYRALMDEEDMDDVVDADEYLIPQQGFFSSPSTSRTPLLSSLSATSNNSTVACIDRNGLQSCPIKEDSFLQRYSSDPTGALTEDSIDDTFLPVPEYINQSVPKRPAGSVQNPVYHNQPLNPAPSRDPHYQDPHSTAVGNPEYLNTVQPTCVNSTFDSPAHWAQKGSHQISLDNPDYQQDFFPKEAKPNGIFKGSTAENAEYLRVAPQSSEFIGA
In short: as §1

Row | SMILES | DC50 (Del19/T790M/C797S EGFR) [pM] | Dmax (%) (Del19/T790M/C797S EGFR) | DC50 (L858R/T790M/C797S EGFR) [pM] | Dmax (L858R/T790M/C797S EGFR) [%]
1 | Cc1cc2cc(n1)-c1cnn(C)c1OCCC[C@@H](C)CN1/C(=N/C2=O)Nc2ccc(CN3CCC4(CC3)CN(C(=O)[C@H]3CN(c5cc(F)c([C@H]6CCC(=O)NC6=O)c(F)c5)CC3(C)C)C4)cc21 [Example 26, (R)-3-(4-((R)-3,3-dimethyl-4-(7-(((R,E)-1^1,2^6,7-trimethyl-3-oxo-5^2,5^3-dihydro-1^1H,5^1H-11-oxa-4-aza-5(2,1)-benzo[d]imidazola-2(2,4)-pyridina-(4,5)-pyrazolacycloundecaphane-5^6-yl)methyl)-2,7-diazaspiro[3.5]nonane-2-carbonyl)pyrrolidin-1-yl)-2,6-difluorophenyl)piperidine-2,6-dione] | 2400 | 81.2 | 2000 | 93.7
2 | Cc1cc2cc(n1)-c1cnn(C)c1OCCC[C@@H](C)CN1/C(=N/C2=O)Nc2ccc(C(=O)N(C)[C@@H]3CCCN(CCc4cc(F)c([C@H]5CCC(=O)NC5=O)c(F)c4)CC3)cc21 [Example 292, (R,E)-N—((R)-1-(4-((R)-2,6-dioxopiperidin-3-yl)-3,5-difluorophenethyl)azepan-4-yl)-N,1^1,2^6,7-tetra methyl-3-oxo-5^2,5^3-dihydro-1^1H,5^1H-11-oxa-4-aza-5(2,1)-benzo[d]imidazola-2(2,4)-pyridina-1(4,5)-pyrazolacycloundecaphane-5^6-carboxamide] | 608 | 85.48 | 514 | 89.4
3 | Cc1cc2cc(n1)-c1cnn(C)c1OCCC[C@@H](C)CN1/C(=N/C2=O)Nc2ccc(C(=O)NC3CCN(CCc4cc(F)c([C@H]5CCC(=O)NC5=O)c(F)c4)CC3)cc21 [Example 242, (R,E)-N-(1-(4-((R)-2,6-dioxopiperidn-3-yl)-3,5-difluorophenethyl)piperidin-4-yl)-1^1,2^6,7-trimethyl-3-oxo-5^2,5′-dihydro-1^1H,5^1H-li-oxa-4-aza-5(2,1)-benzo[d]imidazola-2(2,4)-pyridina-1(4,5)-pyrazolacycloundecaphane-5^6-carboxamide] | 352 | 88.18 | 321 | 93.2
4 | Cc1cc2cc(n1)-c1cnn(C)c1OCCC[C@@H](C)CN1/C(=N/C2=O)Nc2ccc(C3CCN(C(=O)C4CN(c5cc(F)c([C@H]6CCC(=O)NC6=O)c(F)c5)C4)CC3)cc21 [Example 158, (R)-3-(2,6-difluoro-4-(3-(4-((R,E)-1^1,2^6,7-trimethyl-3-oxo-5^2,5-dihydro-1^1H,5^1H-11-oxa-4-aza-5(2, 1)-benzo[d]imidazola-2(2,4)-pyridina-1(4,5)-pyrazolacycloundecaphane-5^6-yl)piperidine-1-carbonyl)azetidin-1-yl)phenyl)piperidine-2,6-dione] | 868 | 72.14 | 852 | 82.2
5 | Cc1cc2cc(n1)-c1cnn(C)c1OCCC[C@@H](C)CN1/C(=N/C2=O)Nc2ccc(C(=O)N(CCN3CCN(c4cc(F)c([C@H]5CCC(=O)NC5=O)c(F)c4)CC3)C(C)C)cc21 [Example 282, (R,E)-N-(2-(4-(4-((R)-2,6-dioxopiperidin-3-yl)-3,5-difluorophenyl)piperazin-1-yl)ethyl)-N-isopropyl-1^1,2^6,7-trimethyl-3-oxo-5^2,5^3-dihydro-1^1H,5^1H-11-oxa-4-aza-5(2,1)-benzo[d]imidazola-2(2,4)-pyridina-1(4,5)-pyrazolacycloundecaphane-5^6-carboxamide] | 657 | 77.76 | 752 | 82.9
6 | Cc1cc2cc(n1)-c1cnn(C)c1OCCC[C@@H](C)CN1/C(=N/C2=O)Nc2ccc(C(=O)N[C@H]3CCN(CCc4cc(F)c([C@H]5CCC(=O)NC5=O)c(F)c4)CC3(C)C)cc21 [Example 261, (R,E)-N—((S)-1-(4-((R)-2,6-dioxopiperidin-3-yl)-3,5-difluorophenethyl)-3,3-dimethylpiperidin-4-yl)-1^1,2^6,7-trimethyl-3-oxo-5^2,5^3-dihydro-1^1H,5^1H-11-oxa-4-aza-5(2,1)-benzo[d]imidazola-2(2,4)-pyridina-1(4,5)-pyrazolacycloundecaphane-5^6-carboxamide] | 621 | 83.61 | 510 | 91.8
7 | Cc1cc2cc(n1)-c1cnn(C)c1OCCC[C@@H](C)CN1/C(=N/C2=O)Nc2ccc(CN3CCN(C(=O)[C@@H]4CCN(c5cc(F)c([C@H]6CCC(=O)NC6=O)c(F)c5)C4)C[C@@H]3C)cc21 [Example 99] | 700 | 75.6 | 1400 | 82.7
8 | Cc1cc2cc(n1)-c1cnn(C)c1OCCC[C@@H](C)CN1/C(=N/C2=O)Nc2ccc(N3CCC(C(=O)N(C)CCc4cc(F)c([C@H]5CCC(=O)NC5=O)c(F)c4)CC3)cc21 [Example 335, N-(4-((R)-2,6-dioxopiperidin-3-yl)-3,5-difluorophenethyl)-N-methyl-1-((R,E)-1^1,2^6,7-trimethyl-3-oxo-5^2,5^3-dihydro-1^1H,5^1H-11-oxa-4-aza-5(2,1)-benzo[d]imidazola-2(2,4)-pyridina-1(4,5)-pyrazolacycloundecaphane-5^6-yl)piperidine-4-carboxamide] | 789 | 60.16 | 657 | 79.4
9 | Cc1cc2cc(n1)-c1cnn(C)c1OCCC[C@@H](C)CN1/C(=N/C2=O)Nc2ccc(C(=O)N(C)C3CN(CCc4cc(F)c([C@H]5CCC(=O)NC5=O)c(F)c4)C3)cc21 [Example 308] | 646 | 64.88 | 702 | 88.5
10 | COC[C@@H]1CN(c2ccc3c(c2)N2C[C@H](C)CCCOc4c(cnn4C)-c4cc(cc(C)n4)C(=O)/N=C/2N3)CCN1C1CCN(c2cc(F)c([C@H]3CCC(=O)NC3=O)c(F)c2)CC1 [Example 397, (R)-3-(2,6-difluoro-4-(4-((S)-2-(methoxymethyl)-4-((R,E)-1^1,2^6,7-trimethyl-3-oxo-5^2,5^3-dihydro-1^1H,5^1H-1i-oxa-4-aza-5(2,1)-benzo[d]imidazola-2(2,4)-pyridina-1(4,5)-pyrazolacycloundecaphane-5-yl)piperazin-1-yl)piperidin-1-yl)phenyl)piperidine-2,6-dione] | 2130 | 76.68 | 2010 | 88.3
11 | Cc1cc2cc(n1)-c1cnn(C)c1OCCC[C@@H](C)CN1/C(=N/C2=O)Nc2ccc(C3CCN(CC4CN(c5cc(F)c([C@H]6CCC(=O)NC6=O)c(F)c5)C4)CC3)cc21 [Example 331, (R)-3-(2,6-difluoro-4-(3-((4-((R,E)-1^1,2^6,7-trimethyl-3-oxo-5^2,53-dihydro-1^1H,5^1H-11-oxa-4-aza-5(2,1)-benzo[d]imidazola-2(2,4)-pyridina-1(4,5)-pyrazolacycloundecaphane-5-yl)piperidin-1-yl)methyl)azetidin-1-yl)phenyl)piperidine-2,6-dione] | 1330 | 73.69 | 710 | 97.1
12 | Cc1cc2cc(n1)-c1cnn(C)c1OCCCCCN1/C(=N/C2=O)Nc2ccc(CN3CCN(CCc4cc(F)c([C@H]5CCC(=O)NC5=O)c(F)c4)CC3)cc21 [Example 144, (R,E)-3-(4-(2-(4-((1^1,2^6-dimethyl-3-oxo-5^2,5^3-dihydro-1^1H,5^1H-11-oxa-4-aza-5(2,1)-benzo[d]imidazola-2(2,4)-pyridina-1(4,5)-pyrazolacycloundecaphane-5^6-yl)methyl)piperazin-1-yl)ethyl)-2,6-difluorophenyl)piperidine-2,6-dione] | 508 | 55.85 | 761 | 80.8
13 | Cc1cc2cc(n1)-c1cnn(C)c1OCCC[C@@H](C)CN1/C(=N/C2=O)Nc2ccc(CN3CCN(C(=O)C4CN(c5ccc(F)c6c5n(C)c(=O)n6C5CCC(=O)NC5=O)C4)CC3)cc21 (stereo partly drawn) [Example 94, 3-(7-fluoro-3-methyl-2-oxo-4-(3-(4-(((R,E)-1^1,2^6,7-trimethyl-3-oxo-5^2,5^3-dihydro-1^1H,5^1H-11-oxa-4-aza-5(2,1)-benzo[d]imidazola-2(2,4)-pyridina-1(4,5)-pyrazolacycloundecaphane-5^6-yl)methyl)piperazine-1-carbonyl)azetidin-1-yl)-2,3-dihydro-1H-benzo[d]imidazol-1-yl)piperidine-2,6-dione] | 700 | 80.5 | 500 | 90.6
14 | Cc1cc2cc(n1)-c1cnn(C)c1OCCC[C@@H](C)CN1/C(=N/C2=O)Nc2ccc(N3CC[C@H](C(=O)N4CCN(c5cc(F)c([C@H]6CCC(=O)NC6=O)c(F)c5)CC4)C3)cc21 [Example 358, (R)-3-(2,6-difluoro-4-(4-((S)-1-((R,E)-1^1,2^4,7-trimethyl-3-oxo-5^2,5^3-dihydro-1^1H,5^1H-11-oxa-4-aza-5(2,1)-benzo[d]imidazola-2(2,4)-pyridina-1(4,5)-pyrazolacycloundecaphane-5^6-yl)pyrrolidine-3-carbonyl)piperazin-1-yl)phenyl)piperidine-2,6-dione] | 1300 | 75.67 | 622 | 89.6
15 | Cc1cc2cc(n1)-c1cnn(C)c1OCCC[C@@H](C)CN1/C(=N/C2=O)Nc2ccc(N3CCC(C(=O)N4CCN(c5cc(F)c([C@H]6CCC(=O)NC6=O)c(F)c5)CC4)CC3)cc21 [Example 333, (R)-3-(2,6-difluoro-4-(4-(1-((R,E)-1^1,2^6,7-trimethyl-3-oxo-5^2,5^3-dihydro-1^1H,5^1H-11-oxa-4-aza-5(2,1)-benzo[d]imidazola-2(2,4)-pyridina-1(4,5)-pyrazolacycloundecaphane-5^6-yl)piperidine-4-carbonyl)piperazin-1-yl)phenyl)piperidine-2,6-dione] | 684 | 75.17 | 687 | 86.1
